Results on 27 compounds are retold here after ChEMBL document CHEMBL3871287, “Discovery of SMP-304, a novel benzylpiperidine derivative with serotonin transporter inhibitory activity and 5-HT1A weak partial agonistic activity showing the antidepressant-like effect” (Bioorg Med Chem, 2017).

The target of data set [1] is T1, 5-hydroxytryptamine receptor 1A (Homo sapiens, UniProt P08908).
T1 sequence (P08908 whole entry): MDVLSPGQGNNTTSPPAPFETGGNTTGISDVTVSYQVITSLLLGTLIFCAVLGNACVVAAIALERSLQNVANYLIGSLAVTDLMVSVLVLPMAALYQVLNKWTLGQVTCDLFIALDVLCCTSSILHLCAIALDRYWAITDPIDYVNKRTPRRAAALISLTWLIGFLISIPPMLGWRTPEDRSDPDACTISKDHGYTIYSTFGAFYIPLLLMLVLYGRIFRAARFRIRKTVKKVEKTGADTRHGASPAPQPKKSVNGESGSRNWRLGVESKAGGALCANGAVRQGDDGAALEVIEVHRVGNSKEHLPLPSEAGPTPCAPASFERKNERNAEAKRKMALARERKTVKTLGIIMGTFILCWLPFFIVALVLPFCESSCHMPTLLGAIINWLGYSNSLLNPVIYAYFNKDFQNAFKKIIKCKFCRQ
The experiment in a line: Displacement of [3H]-8-OH-DPAT from human 5-HT1A receptor expressed in CHOK1 cells after 30 mins by liquid scintillation counting analysis. The class given is cell-based, CHO-K1. (In a radioligand displacement assay an active substance lowers the binding of a labelled ligand.)

In data set [2] the target is T2, Sodium-dependent serotonin transporter (Homo sapiens, UniProt P31645). Put plainly: Inhibition of human SERT expressed in CHO cell membranes assessed as reduction in [3H]serotonin uptake preincubated for 10 mins followed by [3H]serotonin addition measured after 20 mins by liquid scintillation counting method. It is filed as cell-based.
The target in data set [3] is T2, Sodium-dependent serotonin transporter. The experiment in a line: Displacement of [3H]citalopram from human SERT expressed in HEK293 cell membranes after 1 hr by liquid scintillation counting method. It is filed as cell-based.
For a further data set, the target named is Cytochrome P450 2D6 (Homo sapiens, UniProt P10635). The experiment in a line: Inhibition of CYP2D6 in human liver microsomes assessed as reduction in formation of 1'-hydroxy-bufuralol from bufuralol preincubated with enzyme followed by substrate and beta-NADPH addition measured after 10 mins by LC-MS/MS analysis. The class given is ADME. A general note: Liver microsomes are a subcellular fraction often used to study metabolism.

The test system of the next data set is HEK293. The experiment in a line: Selectivity ratio of Ki for human SERT expressed in HEK293 cell membranes to Ki for human 5-HT1A expressed in CHO-K1 cell membranes. It is filed as cell-based.
Data set [4] in a line: Drug uptake in Wistar rat brain at 1 mg/kg, po administered 26 and 2 hrs prior to testing by HPLC/MS analysis. It is filed as ADME, organism-based. Particulars: in vivo.
Data set [5] in a line: Antidepressant-like activity in Wistar rat assessed as decrease in immobility time at 1 and 3 mg/kg, po administered 30 mins post start of training session for 2 days measured 2 hrs post last dose by forced swimming test. The class given is functional, organism-based.
Data set [6] relates to Rattus norvegicus. The experiment in a line: Toxicity in Wistar rat assessed as increase in spontaneous locomotor activity at 1 and 3 mg/kg, po administered 26 and 2 hrs prior to testing measured for 30 mins. Particulars: in vivo. The class given is organism-based.
Data set [7] is described as follows: Drug uptake in Wistar rat brain at 3 mg/kg, po administered 26 and 2 hrs prior to testing by HPLC/MS analysis. Particulars: in vivo. It is filed as ADME, organism-based.
For data set [8], the system named is Rattus norvegicus. Put plainly: Toxicity in Wistar rat assessed as increase in spontaneous locomotor activity at 3 and 10 mg/kg, po administered 26 and 2 hrs prior to testing measured for 30 mins. The class given is organism-based. Particulars: in vivo, 0.5 h.

Active and inactive are the calls of the source. The calls are words filed in the database; no cut-off is given here. Some results are limits rather than exact numbers.

Broadly, the Ki is a measure of affinity in units of concentration, obtained from inhibition or displacement. One may read the IC50 as the concentration that inhibits the measured activity by half.

T2 sequence (P31645 whole entry): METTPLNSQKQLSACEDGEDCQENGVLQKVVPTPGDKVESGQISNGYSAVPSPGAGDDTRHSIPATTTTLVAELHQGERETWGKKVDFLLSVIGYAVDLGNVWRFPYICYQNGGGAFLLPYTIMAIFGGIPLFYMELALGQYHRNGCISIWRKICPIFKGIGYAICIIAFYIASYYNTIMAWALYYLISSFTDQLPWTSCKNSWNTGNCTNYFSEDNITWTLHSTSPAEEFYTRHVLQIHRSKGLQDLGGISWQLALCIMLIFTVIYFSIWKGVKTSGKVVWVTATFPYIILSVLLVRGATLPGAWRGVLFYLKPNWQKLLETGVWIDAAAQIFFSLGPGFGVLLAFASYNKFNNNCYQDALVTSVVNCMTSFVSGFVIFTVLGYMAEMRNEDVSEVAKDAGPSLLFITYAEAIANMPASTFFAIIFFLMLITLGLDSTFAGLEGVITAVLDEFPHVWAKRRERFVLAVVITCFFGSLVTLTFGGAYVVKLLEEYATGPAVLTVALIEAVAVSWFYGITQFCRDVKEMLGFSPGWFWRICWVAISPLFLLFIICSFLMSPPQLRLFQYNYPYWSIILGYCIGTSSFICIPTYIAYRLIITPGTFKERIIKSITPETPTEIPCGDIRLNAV
Chain of Cytochrome P450 2D6 (P10635 whole entry): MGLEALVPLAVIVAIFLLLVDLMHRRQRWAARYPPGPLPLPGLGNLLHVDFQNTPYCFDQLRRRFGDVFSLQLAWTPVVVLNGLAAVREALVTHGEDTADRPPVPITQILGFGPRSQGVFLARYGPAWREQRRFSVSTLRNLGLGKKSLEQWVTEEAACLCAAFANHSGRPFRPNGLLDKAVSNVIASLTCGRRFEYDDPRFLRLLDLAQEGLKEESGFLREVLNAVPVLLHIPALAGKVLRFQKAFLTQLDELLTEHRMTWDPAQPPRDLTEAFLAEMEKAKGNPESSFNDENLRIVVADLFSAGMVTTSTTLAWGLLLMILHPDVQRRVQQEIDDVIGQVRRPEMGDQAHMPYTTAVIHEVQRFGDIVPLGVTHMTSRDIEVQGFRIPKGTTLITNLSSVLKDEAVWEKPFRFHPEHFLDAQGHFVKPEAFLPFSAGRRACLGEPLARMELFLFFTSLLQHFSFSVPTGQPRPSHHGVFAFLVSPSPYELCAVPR

For the compound `COc1ccc(CCN2CCC(Cc3cc(OC)ccc3Br)CC2)cc1`, the Ki stood at 0.81 nM in data set [1] and 37.5 nM in [2].
As for `COc1ccc(Br)c(CC2CCN(C3CCN(c4ccc(OC)c(OC)c4)CC3)CC2)c1`, the IC50 in [1] was less than 10 nM.
Consider `COc1ccc(F)c(CC2CCN(C3CCN(c4ccc(OC)c(OC)c4)CC3)CC2)c1`, for which the Ki in [3] is less than 100 nM.
On to `COc1ccc(Br)c(CC2CCN(CCc3ccc(C)cc3)CC2)c1`, for which the results for the Ki in [1] and in data set [2] were 1.4 nM and 65.3 nM, respectively.
`COc1ccc(Br)c(CC2CCN(CCc3ccc4ccccc4c3)CC2)c1`: the Ki in [1] worked out at 0.89 nM; in data set [2], 25.6 nM.
Consider `COc1ccc(Br)c(CC2CCN(CCc3ccc(F)cc3)CC2)c1`, for which the Ki came to 1.04 nM in data set [1] and 51.2 nM in data set [2].
In the case of `COc1ccc(Br)c(CC2CCN(CCc3cccc4c3OCCO4)CC2)c1`, the Ki came out at 2.12 nM in data set [1] and 25.6 nM in data set [2].
On the same counts, the results for `COc1ccc(Br)c(CC2CCN(CCc3ccccc3Cl)CC2)c1` are 4.08 nM and 62.4 nM.
With `CCOc1ccc(Br)c(CC2CCN(CCc3cc4c(cc3Cl)OCCO4)CC2)c1`, the Ki in data set [1] amounted to 23.4 nM; in data set [2], 18.7 nM. Moreover, at Cytochrome P450 2D6, the IC50 was found to be 1400 nM.
For the compound `COc1ccc(Br)c(CC2CCN(CCc3cc(OC)c(OC)cc3Cl)CC2)c1`, the Ki was determined as 1.96 nM in [1] and 28 nM in data set [2].
As for `COc1ccc(CCN2CCC(Cc3cc(OC)ccc3Br)CC2)c(Cl)c1`, the values for the Ki in data set [1] and in data set [2] were 1.12 nM and 30.5 nM, respectively.
`COc1ccc(Cl)c(CC2CCN(CCc3ccccc3)CC2)c1`: the Ki in [1] was determined as 2.27 nM; in [3], 102 nM.
In the case of `COc1cccc(CC2CCN(CCc3ccccc3)CC2)c1`, the figures for the Ki in data set [1] and in [3] were 29.3 nM and 212 nM, respectively.
With `COc1ccc(Br)c(CC2CCN(CCc3ccc4c(c3)OCCO4)CC2)c1`, the Ki in [1] amounted to 0.36 nM; in data set [2] it was 14 nM.
`COc1cccc(CCN2CCC(Cc3cc(OC)ccc3Br)CC2)c1`: the Ki in [1] stood at 0.82 nM; in data set [2] it was 37.5 nM.
Take `COc1ccc(Br)c(CC2CCN(CCc3cccc(Cl)c3)CC2)c1`: the Ki in data set [1] was 2.93 nM; in data set [2], 42.6 nM.
Regarding `COc1ccc(Br)c(CC2CCN(CCc3ccc(OC)c(Cl)c3)CC2)c1`, the inhibition constant Ki in data set [1] was found to be 1.04 nM; in [2] it was 18.9 nM.
In the case of `CC(C)Oc1ccc(Br)c(CC2CCN(CCc3cc4c(cc3Cl)OCCO4)CC2)c1`, the Ki in data set [1] was 15.9 nM; in [2] it was 13.9 nM. In addition, the IC50 at Cytochrome P450 2D6 is 1500 nM.
Turning to `COc1ccc(Br)c(CC2CCN(CCc3cc4c(cc3Cl)OCCO4)CC2)c1`, in the data set on HEK293, the Ratio Ki is less than 2. In addition, the Ki in [1] worked out at 6.46 nM; in [2], 12.4 nM. At Cytochrome P450 2D6, the IC50 is less than 400 nM.
Regarding `COc1ccc(Br)c(CC2CCN(CCc3ccccc3)CC2)c1`, the Ratio Ki with HEK293 is greater than 20. Besides, the Ki in [1] amounted to 2.72 nM; in [3], 66.4 nM; in data set [2] it was 66.4 nM.
In the case of `COc1ccc(Br)c(CC2CCN(CCc3cccc4ccccc34)CC2)c1`, the Ki in data set [1] is 4.81 nM; in data set [2] it was 38.9 nM.
In the case of `COc1ccc(F)c(CC2CCN(CCc3ccccc3)CC2)c1`, the Ki in data set [1] was 6.04 nM; in data set [3] it was 274 nM.
For the compound `COc1ccc(Br)c(CC2CCN(CCc3ccc(OC)c(OC)c3)CC2)c1`, the Ki in [1] came out at 1.56 nM; in data set [2], 26.9 nM.
In the same order, the values of `COc1ccc(Br)c(CC2CCN(CCc3ccccc3OC)CC2)c1` are 3.03 nM and 37.6 nM.
As to `COCCOc1ccc(Br)c(CC2CCN(CCc3cc4c(cc3Cl)OCCO4)CC2)c1.Cl`, the Drug uptake in data set [4] was found to be 6.74 nmol/kg; in data set [7], 30.3 nmol/kg. The result in data set [5] was Active. In addition, the figures for the IC50 (on Cytochrome P450 2D6; in [2]) were 3000 nM and 306 nM, respectively. Also, the Activity entry in the data set with Rattus norvegicus [6] was “Non-Toxic”. For the same compound, the Ki in data set [2] turned out to be 32.7 nM.
Regarding `COc1ccc(Br)c(CC2CCN(CCc3ccc(Cl)cc3)CC2)c1`, the Ki was 1.34 nM in [1] and 46.2 nM in data set [2].
Take `Fc1ccc([C@@H]2CCNC[C@H]2COc2ccc3c(c2)OCO3)cc1` [PAROXETINE]: the Activity entry with Rattus norvegicus [8] was “Non-Toxic”.
